Assay results: US20260216105A1, “CAPSAICIN EMULSION COMPOSITION, PREPARATION METHOD THEREFOR, AND USE THEREOF” (priority 2022, published 2026)
Converted amounts (≈) assume the structure as drawn.

Experiments:
Format in all cases: physicochemical
physchem = conditions: for solubility at 24 h: 25 °C, thermodynamic from solid
Method: About 3 g of each solvent was weighed according to Table 3, and an excess amount of capsaicin was added. The mixture was placed into a constant-temperature oscillator for oscillation for 24 h (25° C., 200 rpm), and then centrifuged at 10000 rpm for 30 min. The supernatant was taken to measure the capsaicin content. The solubility of CAP in different solvents (different pH buffers, commonly used oil phases, and water-soluble organic solvents) was measured, with the results shown in Table 3: […]

[1] = Physical phenomena of active ingredient / water-soluble solvent / water ternary mixtures; conditions: for mass ratio of water:EtOH (x:1) forming a liquid-liquid phase separation state: both at 0 h and 24 h after standing; for formation of a liquid-liquid phase separation system with ethanol and water: bupivacaine:EtOH 1:2, ropivacaine:EtOH 1:10
Method: (§1) A stock solution was prepared with a mass ratio of CAP:EtOH=1:5. Then, 0.5 g samples of the stock solution were taken and respectively added into PE tubes, and different amounts of water (based on mass ratio of water to CAP) were added according to Table 6. […]
According to the protocols in Examples 4.1-4.3, the physical states of mixtures containing CAP and EtOH (at mass ratios of 1:1, 1:5, and 1:10) and different proportions of water (based on mass ratio of water to CAP) were studied at 0 h and 24 h after standing. […]
as §1, with “bupivacaine:EtOH=1:2.” for “CAP:EtOH=1:5.”, “on” for “on mass”, “bupivacaine)” for “CAP)”, “14. The ternary mixtures were shaken and observed at 0 h and 24 h after standing.” for “6.”

[2] = as above

In the case of `COc1cc(CNC(=O)CCCC/C=C/C(C)C)ccc1O` [CAP, capsaicin], the solubility at 24 h (physchem; oil or lipid, Castor oil, shaken at 25° C. for 24 h) is reported as 36000 µg/mL (≈ 118 mM), the solubility at 24 h (physchem; oil or lipid, GDO, shaken at 25° C. for 24 h) is reported as 45000 µg/mL (≈ 147 mM) and the solubility at 24 h (physchem; oil or lipid, MCT, shaken at 25° C. for 24 h) is reported as 14000 µg/mL (≈ 45.8 mM). The solubility at 24 h (physchem; organic solvent or mixture, DGME, shaken at 25° C. for 24 h) was 502000 µg/mL (≈ 1640 mM), the solubility at 24 h (physchem; organic solvent or mixture, DMI, shaken at 25° C. for 24 h) was > 500000 µg/mL and the solubility at 24 h (physchem; organic solvent or mixture, Ethanol, shaken at 25° C. for 24 h) was > 500000 µg/mL. The solubility at 24 h (physchem; organic solvent or mixture, Isopropanol, shaken at 25° C. for 24 h) was > 500000 µg/mL, the solubility at 24 h (physchem; organic solvent or mixture, PEG200, shaken at 25° C. for 24 h) was 367000 µg/mL (≈ 1200 mM) and the solubility at 24 h (physchem; organic solvent or mixture, Propylene glycol, shaken at 25° C. for 24 h) was 290000 µg/mL (≈ 950 mM). For the same molecule, the solubility at 24 h (physchem; organic solvent or mixture, in some water-soluble organic solvents) was > 250000 µg/mL, the solubility at 24 h (physchem; pH 1, simulated gastric fluid, pH 1.0 hydrochloric acid medium, shaken at 25° C. for 24 h) was 45 µg/mL (≈ 0.147 mM) and the solubility at 24 h (physchem; pH 2, simulated gastric fluid, pH 2.0 hydrochloric acid medium, shaken at 25° C. for 24 h) was 52 µg/mL (≈ 0.17 mM). For the same molecule, the solubility at 24 h (physchem; pH 3, aqueous buffer, pH 3.0 phosphate medium, shaken at 25° C. for 24 h) was 44 µg/mL (≈ 0.144 mM), the solubility at 24 h (physchem; pH 4, aqueous buffer, pH 4.0 acetate medium, shaken at 25° C. for 24 h) was 53 µg/mL (≈ 0.174 mM) and the solubility at 24 h (physchem; pH 5, aqueous buffer, pH 5.0 acetate medium, shaken at 25° C. for 24 h) was 52 µg/mL (≈ 0.17 mM). It also gave a solubility at 24 h (physchem; pH 6, aqueous buffer, pH 6.0 phosphate medium, shaken at 25° C. for 24 h) of 46 µg/mL (≈ 0.151 mM), a solubility at 24 h (physchem; pH 7, aqueous buffer, pH 7.0 phosphate medium, shaken at 25° C. for 24 h) of 45 µg/mL (≈ 0.147 mM) and a solubility at 24 h (physchem; pH 8, aqueous buffer, pH 8.0 phosphate medium, shaken at 25° C. for 24 h) of 42 µg/mL (≈ 0.138 mM). The solubility at 24 h (physchem; pH 9, aqueous buffer, pH 9.0 carbonate medium, shaken at 25° C. for 24 h) was 53 µg/mL (≈ 0.174 mM), the solubility at 24 h (physchem; pH 10, aqueous buffer, pH 10.0 carbonate medium, shaken at 25° C. for 24 h) was 102 µg/mL (≈ 0.334 mM) and the Solubility (physchem; Corn oil, shaken at 25° C. for 24 h) was 5000 µg/mL (≈ 16.4 mM). For the same molecule, the Solubility (physchem; Peanut oil, shaken at 25° C. for 24 h) was 5000 µg/mL (≈ 16.4 mM), the Solubility (physchem; Rapeseed oil, shaken at 25° C. for 24 h) was 5000 µg/mL (≈ 16.4 mM) and the “mass ratio of water:EtOH (x:1) forming a liquid-liquid phase separation state” value (shortened to “mass ratio of water:EtOH”) ([1]; CAP:EtOH 1:1) was 0.65-2. The “mass ratio of water:EtOH” value ([1]; CAP:EtOH 1:5) was 1-2.2, the “mass ratio of water:EtOH” value ([1]; CAP:EtOH 1:10) was 1.4-2.5 and the “formation of a liquid-liquid phase separation system with PEG200 and water” value ([1]; CAP:PEG200 1:3) was “could not form a liquid-liquid phase separation system”. The “formation of a liquid-liquid phase separation system with PEG200 and water” value ([1]; CAP:PEG200 1:5 (increased mass of PEG200)) was “failed to enable the formation of a liquid-liquid phase separation system”, the “formation of a liquid-liquid phase separation system with propylene glycol and water” value ([1]; CAP:propylene glycol 1:5) was “failed to form a liquid-liquid phase separation system” and the “mass ratio of water:DGME (x:1) forming a liquid-liquid phase separation system” value ([2]; CAP:DGME 1:1) was 1-2. For the same molecule, the “mass ratio of water:DMI (x:1) forming a liquid-liquid phase separation system” value ([2]; CAP:DMI 1:3) was 0.3-2 and the “mass ratio of water:IPA (x:1) forming a liquid-liquid phase separation system” value ([2]; CAP:IPA 1:1) was 0.5-2.
With `CCCN1CCCC[C@H]1C(=O)Nc1c(C)cccc1C` [ropivacaine] the “formation of a liquid-liquid phase separation system with ethanol and water” value [1] was “failed to form a liquid-liquid phase separation system”.
With `CCCCN1CCCCC1C(=O)Nc1c(C)cccc1C` (stereo not shown) [bupivacaine] the “formation of a liquid-liquid phase separation system with ethanol and water” value [1] was “failed to form a liquid-liquid phase separation system”.
